Experimental data published in PubChem BioAssay (NCI).
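Test compounds were applied to cells in 96-well plates for 48 hours at 5 doses. GI50 = concentration required for 50% inhibition of growth. TGI: total growth inhibition.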

Assays:
Assay in all cases: DTP human tumour cell line panel, 48 h
[1] = system: SW-620 colon
[2] = system: NCI-H226 lung
[3] = system: A549 NSCLC
[4] = system: HL-60(TB) leukemia
[5] = system: SNB-75 CNS
[6] = system: A498 renal
[7] = system: SR leukemia
[8] = system: SF-539 CNS
[9] = system: RPMI-8226 leukemia
[10] = system: HCT-15 colon
[11] = system: OVCAR-5 ovarian
[12] = system: M14 melanoma
[13] = system: SK-OV-3 ovarian
[14] = system: MDA-MB-435
[15] = system: SN12C renal
[16] = system: ACHN renal
[17] = system: UACC-257 melanoma
[18] = system: T-47D breast
[19] = system: OVCAR-4 ovarian
[20] = system: MDA-MB-468 breast
[21] = system: PC-3 prostate
[22] = system: MALME-3M melanoma
[23] = system: HS 578T breast
[24] = system: CCRF-CEM leukemia
[25] = system: MCF7 breast
[26] = system: 786-0 renal
[27] = system: UACC-62 melanoma
[28] = system: SF-295 CNS
[29] = system: DU-145 prostate
[30] = system: BT-549 breast
[31] = system: SF-268 CNS
[32] = system: CAKI-1 renal
[33] = system: MOLT-4 leukemia
[34] = system: RXF 393 renal
[35] = system: HT29 colon
[36] = system: HOP-62 NSCLC
[37] = system: KM12 colon
[38] = system: OVCAR-8 ovarian
[39] = system: HCC-2998 colon
[40] = system: NCI-H522 lung
[41] = system: SK-MEL-28 melanoma
[42] = system: LOX IMVI melanoma
[43] = system: NCI-H23 lung
[44] = system: COLO 205 colon
[45] = system: SK-MEL-2 melanoma
[46] = system: SNB-19 CNS
[47] = system: EKVX NSCLC
[48] = system: HCT-116 colon
[49] = system: SK-MEL-5 melanoma
[50] = system: UO-31 renal
[51] = system: U251 CNS
[52] = system: NCI-H460 lung
[53] = system: IGROV1 ovarian
[54] = system: K-562 leukemia
[55] = system: OVCAR-3 ovarian
[56] = system: TK-10 renal
[57] = system: HOP-92 NSCLC
[58] = system: MDA-MB-231 breast

Question: Which results are given for `O=C([Se]C1C=CCCC1)c1ccc(C(=O)[Se]C2C=CCCC2)s1` (stereo unspecified)?
Answer: GI50 [1]: 2.32 µM; TGI [1]: 6.01 µM; GI50 [2]: 3.42 µM; TGI [2]: 15.2 µM; GI50 [3]: 3.09 µM; TGI [3]: 18.7 µM; GI50 [4]: 1.94 µM; TGI [4]: 4.81 µM; GI50 [5]: 1.38 µM; TGI [5]: 2.94 µM; GI50 [6]: 2.47 µM; TGI [6]: 7.29 µM; GI50 [7]: 2.26 µM; TGI [7]: 5.53 µM; GI50 [8]: 1.82 µM; TGI [8]: 3.23 µM; GI50 [9]: 2.53 µM; TGI [9]: 6.53 µM; GI50 [10]: 3.1 µM; TGI [10]: 11.6 µM; GI50 [11]: 2.07 µM; TGI [11]: 4.75 µM; GI50 [12]: 2.02 µM; TGI [12]: 4.56 µM; GI50 [13]: 2.33 µM; TGI [13]: 5.33 µM; GI50 [14]: 6.42 µM; TGI [14]: 23.1 µM; GI50 [15]: 2.05 µM; TGI [15]: 4.34 µM; GI50 [16]: 2.32 µM; TGI [16]: 5.58 µM; GI50 [17]: 2.44 µM; TGI [17]: 6.89 µM; GI50 [18]: 2.17 µM; TGI [18]: 5.19 µM; GI50 [19]: 2.19 µM; TGI [19]: 4.98 µM; GI50 [20]: 2.13 µM; TGI [20]: 5.18 µM; GI50 [21]: 1.95 µM; TGI [21]: 5.95 µM; GI50 [22]: 2.27 µM; TGI [22]: 5.52 µM; GI50 [23]: 2.36 µM; TGI [23]: 6.69 µM; GI50 [24]: 2.68 µM; TGI [24]: 8.66 µM; GI50 [25]: 2.79 µM; TGI [25]: 10.6 µM; GI50 [26]: 2.02 µM; TGI [26]: 4.08 µM; GI50 [27]: 1.92 µM; TGI [27]: 4.2 µM; GI50 [28]: 0.366 µM; TGI [28]: 1.64 µM; GI50 [29]: 3.48 µM; TGI [29]: 11.5 µM; GI50 [30]: 3.55 µM; TGI [30]: 11.7 µM; GI50 [31]: 3.34 µM; TGI [31]: 16.9 µM; GI50 [32]: 2.93 µM; TGI [32]: 10.2 µM; GI50 [33]: 2.89 µM; TGI [33]: 8.34 µM; GI50 [34]: 2.37 µM; TGI [34]: 5.69 µM; GI50 [35]: 4.01 µM; TGI [35]: 25.7 µM; GI50 [36]: 1.17 µM; TGI [36]: 6.65 µM; GI50 [37]: 2.76 µM; TGI [37]: 7.08 µM; GI50 [38]: 1.79 µM; TGI [38]: 3.47 µM; GI50 [39]: 2.49 µM; TGI [39]: 6.19 µM; GI50 [40]: 1.71 µM; TGI [40]: 3.32 µM; GI50 [41]: 3.11 µM; TGI [41]: 11.6 µM; GI50 [42]: 2.71 µM; TGI [42]: 8.88 µM; GI50 [43]: 1.95 µM; TGI [43]: 4.18 µM; GI50 [44]: 2.42 µM; TGI [44]: 7.25 µM; GI50 [45]: 1.77 µM; TGI [45]: 3.71 µM; GI50 [46]: 1.35 µM; TGI [46]: 3.56 µM; GI50 [47]: 2.01 µM; TGI [47]: 4.7 µM; GI50 [48]: 2.87 µM; TGI [48]: 8.75 µM; GI50 [49]: 1.83 µM; TGI [49]: 3.99 µM; GI50 [50]: 1.73 µM; TGI [50]: 3.38 µM; GI50 [51]: 1.94 µM; TGI [51]: 4.47 µM; GI50 [52]: 1.43 µM; TGI [52]: 10.1 µM; GI50 [53]: 1.81 µM; TGI [53]: 3.48 µM; GI50 [54]: 3.96 µM; TGI [54]: 49.7 µM; GI50 [55]: 2.13 µM; TGI [55]: 4.7 µM; GI50 [56]: 1.87 µM; TGI [56]: 3.88 µM; GI50 [57]: 2.85 µM; TGI [57]: 11 µM; GI50 [58]: 2.02 µM; TGI [58]: 4.16 µM
